{"source": "patent US11234982B2", "about": "“Methods for treating ocular surface pain” (NOVARTIS AG, priority 2019, dated 2022)", "key": {"[1]": {"tested_on": "patients undergoing photorefractive keratectomy (PRK) surgery", "assay": "PRK study: oral rescue medication (ORM) use", "type": "in vivo, human", "conditions": "for Number of patients who did not use oral rescue medication: 2.5%; for Number of patients who did not use oral rescue medication / Amount of oral rescue medication (Number of pills), Mean (SD) / Amount of oral rescue medication (Number of pills), Range / Amount of oral rescue medication (mg/kg of body weight), Range / Amount of oral rescue medication (mg/kg of body weight), Mean (SD): N = 40; for Amount of oral rescue medication (mg/kg of body weight), Mean (SD): tablet counted as 330 mg", "protocol": "The study was a proof of concept, double-masked, randomized, vehicle-controlled study of compound I administered as eye drops in addition to standard of care treatment in patients after PRK surgery. PRK surgery was performed as an outpatient procedure under topical anesthesia with removal of the corneal epithelium to expose the stroma for the laser ablation. Compound I dosing was as single eye drop of 2.5% (25 mg/ml, 0.925 mg/drop), administered four times daily (every six hours) in one eye from immediate post-op (time 0) to last dose at 72 hours.\nRescue medication consisted of oral analgesic (acetaminophen 300 mg+codeine 30 mg) as needed up to a total of 10 tabs/day or 1-2 tabs every 4 hours.\nRescue oral analgesics: It is not ethical to refuse pain control medication to patients postoperatively as part of a clinical trial. […] Because the use of oral rescue medication may be a potential confounder of the pain VAS evaluation, three approaches were used when analyzing pain VAS scores to account for the influence of pain meds (assuming 4 hours of rescue medication effect): (1) any recorded VAS score within 4 hours after use of rescue medication was considered missing; (2) all the recorded VAS scores was used; and (3) any recorded VAS scores within 4 hours after rescue medication use was imputed by the record taken prior to the rescue medication."}, "[2]": {"tested_on": "corneal epithelial wound after PRK surgery", "assay": "PRK study: size of epithelial defect by slit lamp exam (wound healing)", "type": "in vivo, human", "excerpt": "Adverse events and serious adverse events included an assessment of both systemic and ocular assessments. Systemic safety assessments included regular assessments of height and weight, vital signs, reporting medication errors including misuse/abuse, pregnancy reporting and early phase safety monitoring. The misuse/abuse, pregnancy reporting and early phase safety monitoring were not assessed for the study. Ocular safety assessments included the following: • Best-corrected visual acuity (BCVA) and uncorrected visual acuity (UCVA): Was measured at each visit using an ETDRS visual acuity chart at 4 meters (13 feet) or 1 meter (for patients that cannot read the 4 meter chart). The BCVA scoring was done based on the number of correctly read letters plus 30. If visual acuity was so poor that the patient could not read any of the largest letters at 1 meter, count fingers and hand movement vision and light perception was tested. • Intraocular Pressure (TOP): IOP measurements were conducted with applanation tonometry or Tonopen. • Dilated fundus exam: The dilated fundus examination included ophthalmoscopic assessments of the vitreous, retina/macula/choroid, and optic nerve. Evaluations for retinal tear/detachment, retinal hemorrhage, vitreous hemorrhage density, vitreous haze grading and abnormal findings were done and scored according to grading criteria. • Ocular hyperemia: Conjunctival redness of the bulbar conjunctiva in each eye at the slit lamp according to the McMonnies redness scale was graded. […] By adjusting the calibrated slit beam width and height, the maximum horizontal (wound width) and vertical dimensions (wound height) of the surgical epithelial wound was estimated. The evaluation was performed until wound closure and report of wound size as 0 horizontal and 0 vertical dimensions. • Slit-lamp biomicroscopy: Ocular signs (eyelids/conjunctiva, cornea, lens, and iris/anterior chamber) was assessed in both eyes by slit lamp biomicroscopy according to the grading criteria. • Blink rate: A blink was defined as a bilateral paroxysmal closure of the eyelids (duration<1 second) in the absence of a provoking external stimulus. Each blink assessment lasted for 2 min (or as close to 2 minutes as possible with minimum time 1 minute) and the obtained blink rate was averaged to calculate blink rate in blinks/min. • Tear production (Schirmer's test without anesthesia): The test was performed without anesthetic in both eyes simultaneously. Tear secretion was measured in millimeters of the length of strip wetted by tears. […] The strip was wetted with 1 drop of sterile saline and flicked to remove excess saline. The patient blinked several times to ensure dispersion of the dye throughout the tear film prior to grading on a scale of 0-3 (0=Normal, No staining; 1=Mild, Superficial stippling micropunctate staining; 2=Moderate, Macropunctate staining with some coalescent areas and 3=Severe, Numerous coalescent macropunctate areas and/or patches) for each of 5 zones (central plus 4 quadrants).\nSize of epithelial defect by slit lamp exam: In order to assess the rate of wound healing after administration of compound I, the size of the epithelial defect in both compound I and Vehicle treated populations was measured. The elliptical area of epithelial wound size was calculated as follows: […], from the width and height of the epithelial defect measured at the slit lamp. The difference in epithelial wound area between compound I and Vehicle was not noticeably different at any time point except at Day 2 post-PRK surgery (all p-values for the difference in area was >0.35). On Day 2 (24 hours post-operative), the difference in average epithelial defect area between patients treated with compound I vs. Vehicle was 11.23 mm2 (p value=0.034). This difference was not clinically significant in the immediate post-operative period. […]"}}, "note": "Several values for one entry are separate records, joined by “and”; a condition that tells them apart may be missing. Equal entries are not always repeated."}
{"smiles": "CC(C)c1nc2cc(O)ccc2c(=O)n1-c1ccc(C#N)cc1", "note": "[Compound I, 4-(7-hydroxy-2-isopropyl-4-oxo-4H-quinazolin-3-yl)-benzonitrile]", "values": [{"measurement": "Amount of ORM (Number of pills), % Change (Compound I-Vehicle)/Vehicle", "setting": "[1]; 0-6 hours post-operatively", "result": "−25", "unit": "%"}, {"measurement": "Amount of ORM (mg/kg of body weight), % Change (Compound I-Vehicle)/Vehicle", "setting": "[1]; 0-6 hours post-operatively", "result": "−25", "unit": "%"}, {"measurement": "Number of patients who did not use oral rescue medication", "setting": "[1]; 0-6 hours post-operatively", "result": "23 (57.5%) n (%)"}, {"measurement": "Amount of oral rescue medication (Number of pills), Mean (SD)", "setting": "[1]; 0-6 hours post-operatively", "result": "0.75 (1.032) Number of pills"}, {"measurement": "Amount of oral rescue medication (Number of pills), Range", "setting": "[1]; 0-6 hours post-operatively", "result": "0.0-4.0 Number of pills"}, {"measurement": "Amount of oral rescue medication (mg/kg of body weight), Range", "setting": "[1]; 0-6 hours post-operatively", "result": "0.0-19.2 mg/kg of body weight"}, {"measurement": "Amount of oral rescue medication (mg/kg of body weight), Mean (SD)", "setting": "[1]; 0-6 hours post-operatively", "result": "3.32 (4.684) mg/kg of body weight"}, {"measurement": "Number of patients who did not use ORM, compound I-treated eye compared to Vehicle-treated eye", "setting": "[1]; 0-6 hours, 0-12 hours and 0-24 hours post-operatively", "result": "higher"}, {"measurement": "Amount of ORM (Number of pills), % Change (Compound I-Vehicle)/Vehicle", "setting": "[1]; 0-12 hours post-operatively", "result": "−15", "unit": "%"}, {"measurement": "Amount of ORM (mg/kg of body weight), % Change (Compound I-Vehicle)/Vehicle", "setting": "[1]; 0-12 hours post-operatively", "result": "−17", "unit": "%"}, {"measurement": "Number of patients who did not use oral rescue medication", "setting": "[1]; 0-12 hours post-operatively", "result": "19 (47.5%) n (%)"}, {"measurement": "Amount of oral rescue medication (Number of pills), Mean (SD)", "setting": "[1]; 0-12 hours post-operatively", "result": "1.40 (1.780) Number of pills"}, {"measurement": "Amount of oral rescue medication (Number of pills), Range", "setting": "[1]; 0-12 hours post-operatively", "result": "0.0-6.0 Number of pills"}, {"measurement": "Amount of oral rescue medication (mg/kg of body weight), Range", "setting": "[1]; 0-12 hours post-operatively", "result": "0.0-28.7 mg/kg of body weight"}, {"measurement": "Amount of oral rescue medication (mg/kg of body weight), Mean (SD)", "setting": "[1]; 0-12 hours post-operatively", "result": "6.10 (8.062) mg/kg of body weight"}, {"measurement": "Amount of ORM (Number of pills), % Change (Compound I-Vehicle)/Vehicle", "setting": "[1]; 0-24 hours post-operatively", "result": "−16", "unit": "%"}, {"measurement": "Amount of ORM (mg/kg of body weight), % Change (Compound I-Vehicle)/Vehicle", "setting": "[1]; 0-24 hours post-operatively", "result": "−18", "unit": "%"}, {"measurement": "Number of patients who did not use oral rescue medication", "setting": "[1]; 0-24 hours post-operatively", "result": "16 (40.0%) n (%)"}, {"measurement": "Amount of oral rescue medication (Number of pills), Mean (SD)", "setting": "[1]; 0-24 hours post-operatively", "result": "2.35 (2.751) Number of pills"}, {"measurement": "Amount of oral rescue medication (Number of pills), Range", "setting": "[1]; 0-24 hours post-operatively", "result": "0.0-10.0 Number of pills"}, {"measurement": "Amount of oral rescue medication (mg/kg of body weight), Range", "setting": "[1]; 0-24 hours post-operatively", "result": "0.0-47.9 mg/kg of body weight"}, {"measurement": "Amount of oral rescue medication (mg/kg of body weight), Mean (SD)", "setting": "[1]; 0-24 hours post-operatively", "result": "10.17 (12.335) mg/kg of body weight"}, {"measurement": "Number of patients who did not use oral rescue medication", "setting": "[1]; 0-2 days post-operatively", "result": "11 (27.5%) n (%)"}, {"measurement": "Amount of ORM (Number of pills), % Change (Compound I-Vehicle)/Vehicle", "setting": "[1]; 0-48 hours post-operatively", "result": "−13", "unit": "%"}, {"measurement": "Amount of ORM (mg/kg of body weight), % Change (Compound I-Vehicle)/Vehicle", "setting": "[1]; 0-48 hours post-operatively", "result": "−14", "unit": "%"}, {"measurement": "Amount of oral rescue medication (Number of pills), Mean (SD)", "setting": "[1]; 0-48 hours post-operatively", "result": "4.05 (4.466) Number of pills"}, {"measurement": "Amount of oral rescue medication (Number of pills), Range", "setting": "[1]; 0-48 hours post-operatively", "result": "0.0-16.0 Number of pills"}, {"measurement": "Amount of oral rescue medication (mg/kg of body weight), Range", "setting": "[1]; 0-48 hours post-operatively", "result": "0.0-76.6 mg/kg of body weight"}, {"measurement": "Amount of oral rescue medication (mg/kg of body weight), Mean (SD)", "setting": "[1]; 0-48 hours post-operatively", "result": "17.59 (19.850) mg/kg of body weight"}, {"measurement": "Number of patients who did not use oral rescue medication", "setting": "[1]; 0-3 days post-operatively", "result": "11 (27.5%) n (%)"}, {"measurement": "Amount of ORM (Number of pills), % Change (Compound I-Vehicle)/Vehicle", "setting": "[1]; 0-72 hours post-operatively", "result": "−14", "unit": "%"}, {"measurement": "Amount of ORM (mg/kg of body weight), % Change (Compound I-Vehicle)/Vehicle", "setting": "[1]; 0-72 hours post-operatively", "result": "−15", "unit": "%"}, {"measurement": "Amount of oral rescue medication (Number of pills), Mean (SD)", "setting": "[1]; 0-72 hours post-operatively", "result": "4.33 (4.896) Number of pills"}, {"measurement": "Amount of oral rescue medication (Number of pills), Range", "setting": "[1]; 0-72 hours post-operatively", "result": "0.0-21.0 Number of pills"}, {"measurement": "Amount of oral rescue medication (mg/kg of body weight), Range", "setting": "[1]; 0-72 hours post-operatively", "result": "0.0-87.4 mg/kg of body weight"}, {"measurement": "Amount of oral rescue medication (mg/kg of body weight), Mean (SD)", "setting": "[1]; 0-72 hours post-operatively", "result": "18.70 (21.509) mg/kg of body weight"}, {"measurement": "Amount of ORM (mg/kg of body weight) during compound I vs. Vehicle treatment", "setting": "[1]; every time interval", "result": "less"}, {"measurement": "ORM taken during compound I vs. Vehicle treatment (number of pills)", "setting": "[1]; every time interval during the study", "result": "less ORM taken"}, {"measurement": "Epithelial defect area, Difference compound I-Vehicle, mean (SD)", "setting": "[2]; Day 1", "result": "2.98 (27.33) mm^2"}, {"measurement": "Epithelial defect size, Area, Raw mean (SD)", "setting": "[2]; Day 1", "result": "220.15 (32.26) mm^2"}, {"measurement": "Epithelial defect area, Difference compound I-Vehicle, mean (SD)", "setting": "[2]; Day 2", "result": "11.23 mm^2 and 11.23 (32.30) mm^2"}, {"measurement": "Epithelial defect size, Area, Raw mean (SD)", "setting": "[2]; Day 2", "result": "83.02 (32.08) mm^2"}, {"measurement": "Epithelial defect area, Difference compound I-Vehicle, mean (SD)", "setting": "[2]; Day 3", "result": "1.02 (8.78) mm^2"}, {"measurement": "Epithelial defect size, Area, Raw mean (SD)", "setting": "[2]; Day 3", "result": "6.75 (12.66) mm^2"}, {"measurement": "Epithelial defect area, Difference compound I-Vehicle, mean (SD)", "setting": "[2]; Day 4", "result": "0.31 (2.11) mm^2"}, {"measurement": "Epithelial defect size, Area, Raw mean (SD)", "setting": "[2]; Day 4", "result": "0.39 (2.04) mm^2"}, {"measurement": "Epithelial defect area, Difference compound I-Vehicle, mean (SD)", "setting": "[2]; Day 8", "result": "0.00 (0.00) mm^2"}, {"measurement": "Epithelial defect size, Area, Raw mean (SD)", "setting": "[2]; Day 8", "result": "0.00 (0.00) mm^2"}, {"measurement": "Wound healing compared to Vehicle", "setting": "[2]; after PRK surgery", "result": "no delay in wound healing"}]}
